In the NIST ThermoML archive (doi:10.1016/j.jct.2005.03.016):

Experiment: xn = mol fraction of the nth substance listed
Settings: Liquid, Vibrating tube method

CC1CCCCC1 [methylcyclohexane] + CCO
mass density [kg/m3]
Settings | 100 kPa | 5000 kPa | 10000 kPa | 15000 kPa | 20000 kPa | 25000 kPa | 30000 kPa | 35000 kPa | 40000 kPa | 45000 kPa
283.15 K, x2 = 0 | 777.6 | 781.4 | 785.2 | 788.7 | 792.1 | 795.3 | 798.5 | 801.5 | 804.4 | 807.3
283.15 K, x2 = 0.052 | 777.6 | 781.4 | 785.1 | 788.7 | 792.1 | 795.4 | 798.5 | 801.6 | 804.5 | 807.4
283.15 K, x2 = 0.125 | 777.7 | 781.6 | 785.3 | 788.9 | 792.4 | 795.6 | 798.8 | 801.9 | 804.8 | 807.7
283.15 K, x2 = 0.25 | 778.5 | 782.4 | 786.2 | 789.8 | 793.2 | 796.6 | 799.7 | 802.8 | 805.8 | 808.7
283.15 K, x2 = 0.375 | 779.8 | 783.6 | 787.4 | 791.1 | 794.6 | 797.9 | 801.1 | 804.2 | 807.2 | 810.1
283.15 K, x2 = 0.5 | 781.4 | 785.3 | 789.1 | 792.8 | 796.3 | 799.6 | 802.8 | 806 | 809 | 811.9
283.15 K, x2 = 0.625 | 783.5 | 787.4 | 791.3 | 794.9 | 798.5 | 801.8 | 805.1 | 808.2 | 811.3 | 814.2
283.15 K, x2 = 0.75 | 786.4 | 790.4 | 794.3 | 797.9 | 801.5 | 804.9 | 808.1 | 811.3 | 814.3 | 817.2
283.15 K, x2 = 0.875 | 790.9 | 794.8 | 798.7 | 802.4 | 805.9 | 809.3 | 812.6 | 815.8 | 818.8 | 821.8
293.15 K, x2 = 0 | 769 | 773 | 777 | 780.7 | 784.3 | 787.8 | 791.1 | 794.2 | 797.3 | 800.2
293.15 K, x2 = 0.052 | 768.8 | 772.8 | 776.8 | 780.6 | 784.2 | 787.6 | 790.9 | 794.1 | 797.2 | 800.2
293.15 K, x2 = 0.125 | 768.9 | 772.9 | 776.9 | 780.7 | 784.4 | 787.8 | 791.2 | 794.4 | 797.5 | 800.5
293.15 K, x2 = 0.25 | 769.6 | 773.7 | 777.8 | 781.6 | 785.2 | 788.7 | 792.1 | 795.3 | 798.4 | 801.5
293.15 K, x2 = 0.375 | 770.8 | 774.9 | 779 | 782.8 | 786.5 | 790 | 793.4 | 796.7 | 799.8 | 802.8
293.15 K, x2 = 0.5 | 772.5 | 776.6 | 780.7 | 784.5 | 788.2 | 791.8 | 795.2 | 798.4 | 801.6 | 804.6
293.15 K, x2 = 0.625 | 774.6 | 778.8 | 782.9 | 786.8 | 790.5 | 794 | 797.4 | 800.7 | 803.9 | 806.9
293.15 K, x2 = 0.75 | 777.7 | 781.8 | 785.9 | 789.9 | 793.6 | 797.1 | 800.5 | 803.8 | 807 | –
293.15 K, x2 = 0.875 | 782.2 | 786.4 | 790.5 | 794.4 | 798.1 | 801.7 | 805.1 | 808.4 | 811.6 | –
